From US20150376196A1, “4-SUBSTITUTED PYRROLO- AND PYRAZOLO-DIAZEPINES” (BAYER PHARMA AKTIENGESELLSCHAFT, priority 2013, published 2015) come the findings set out here.

Read-outs that look alike come from different tables or passages of the source.

The test system of experiment [1] is B16F10 cells. Nature of the experiment: Cell proliferation assay (alamarBlue), B16F10. Type of experiment: cell-based. As to conditions: Mus musculus, B16-F10, Melanoma (BRAF wild-type), 96 hours, inhibition of cell proliferation. The protocol: (§1) In accordance with the invention, the ability of the substances to inhibit cell proliferation was determined Cell viability was determined by means of the alamarBlue® reagent (Invitrogen) in a Victor X3 Multilabel Reader (Perkin Elmer). The excitation wavelength was 530 nm and the emission wavelength […].
The B16F10 cells (ATCC, CRL-6475) were sown at a concentration of 300-500 cells/well in 100 μl of growth medium (DMEM with phenol red, 10% FCS) on 96-well microtitre plates.
(§2) The MDA-MB-231 cells (DSMZ, ACC 732) were sown at a concentration of 4000 cells/well in 100 μl of growth medium (DMEM/Ham's F12 medium, 10% FCS) on 96-well microtitre plates. After overnight incubation at 37° C., the fluorescence values (CI values) were determined. Then the plates were treated with various substance dilutions (1E-5 M, 3E-6 M, 1E-6 M, 3E-7 M, 1E-7 M, 3E-8 M, 1E-8 M) and incubated at 37° C. for 72 (MV-4-11, LOX-IMVI cells), 96 (MOLM-13, B16F10, […] cells), 120 (MOLP-8, KMS-12-PE cells) or 168 (LAPC-4 cells) hours. Subsequently, the fluorescence values were determined (CO values). For the data analysis, the CI values were subtracted from the CO values and the results were compared between cells which had been treated with various dilutions of the substance or only with buffer solution. The ICso values (substance concentration needed for 50% inhibition of cell proliferation) were calculated therefrom.
(§3) The substances were tested in the cell lines in Table 1, which represent the indications specified by way of example: […]
Background: Alamar Blue is a resazurin reagent that responds to reducing activity.

For experiment [2], the system named is MOLM-13 cells. Nature of the experiment: Cell proliferation assay (alamarBlue), MOLM-13. The class given is cell-based. As to conditions: Homo sapiens, Leukaemia, 96 hours, inhibition of cell proliferation. How it is done:
as §1
The MOLM-13 cells (DSMZ, ACC 554) were sown at a concentration of 4000 cells/well in 100 μl of growth medium (RPMI1640, 10% FCS) on 96-well microtitre plates.
as §2, §3

Experiment [3] relates to MOLP-8 cells. Nature of the experiment: Cell proliferation assay (alamarBlue), MOLP-8. Type of experiment: cell-based. As to conditions: Homo sapiens, Multiple myeloma, 120 hours, inhibition of cell proliferation. How it is done:
as §1
The MOLP-8 cells (DSMZ, ACC 569) were sown at a concentration of 4000 cells/well in 100 μl of growth medium (RPMI1640, 20% FCS) on 96-well microtitre plates.
as §2, §3

Experiment [4] relates to LAPC-4 cells. The experiment can be described thus: Cell proliferation assay (alamarBlue), LAPC-4. The class given is cell-based. As to conditions: Homo sapiens, LAPC4, Prostate, 1 nM methyltrienolone, 168 hours, inhibition of cell proliferation. How it is done: as §1
The LAPC-4 cells (ATCC, PTA-1441TM) were sown at a concentration of 4000 cells/well in 100 μl of growth medium (RPMI1640, 2 mM L-glutamine, 10% cFCS) on 96-well microtitre plates. One day later, the LAPC-4 cells were treated with 1 nM methyltrienolone and various substance dilutions.
as §2, §3

Experiment [5] deals with MDA-MB-231 cells. Nature of the experiment: Cell proliferation assay (alamarBlue), MDA-MB-231. The class given is cell-based. Conditions: Homo sapiens, Breast, 96 hours, inhibition of cell proliferation. How it is done: as §1, §2, §3
The target of experiment [6] is T1, BRD4 (BD1) (Homo sapiens, UniProt O60885).
T1 construct: amino acids 67-152, longer constructs also being possible, preferably amino acids 44-168; made in house; host or cells: E. coli
The experiment can be described thus: Binding assay BRD4/acetylated peptide H4 (TR-FRET protein-protein interaction assay). The source says: To assess the BRD4 binding strength of the substances described in this application, the ability thereof to inhibit the interaction between BRD4 (BD1) and acetylated histone H4 in a dose-dependent manner was quantified.
For this purpose, a time-resolved fluorescence resonance energy transfer (TR-FRET) assay was used, which measures the binding between N-terminally His6-tagged BRD4 (BD1) (amino acids 67-152, longer constructs also being possible, preferably amino acids 44-168) and a synthetic acetylated histone H4 (Ac-H4) peptide with sequence GRGK(Ac)GGK(Ac)GLGK(Ac)GGAK(Ac)RHGSGSK-biotin. The recombinant BRD4 protein produced in-house according to Filippakopoulos et al., Nature, 2010, 468:1119-1123 was expressed in E. coli and purified by means of (Ni-NTA) affinity and (Sephadex G-75) size exclusion chromatography. The Ac-H4 peptide can be purchased, for example, from Biosyntan (Berlin, Germany).
In the assay, typically 11 different concentrations of each substance (0.1 nM, 0.33 nM, 1.1 nM, 3.8 nM, 13 nM, 44 nM, 0.15 μM, 0.51 μM, 1.7 μM, 5.9 μM and 20 μM) were analysed as duplicates on the same microtitre plate. For this purpose, 100-fold concentrated solutions in DMSO were prepared by serial dilutions (1:3.4) of a 2 mM stock solution into a clear, 384-well microtitre plate (Greiner Bio-One, Frickenhausen, Germany). From this, 50 nl were transferred into a black test plate (Greiner Bio-One, Frickenhausen, Germany). The test was started by the addition of 2 μl of a 2.5-fold concentrated BRD4 solution (final concentration typically 10 nM in the 5 μl of reaction volume) in aqueous assay buffer [50 mM HEPES pH 7.5, 50 mM sodium chloride (NaCl), 0.25 mM CHAPS and 0.05% serum albumin (BSA)] to the substances in the test plate. This was followed by a 10-minute incubation step at 22° C. for the pre-equilibration of putative complexes between BRD4 and the substances.
The mixture was then incubated in the dark at 22° C. for one hour and then at 4° C. for at least 3 hours and for no longer than overnight. The formation of BRD4/Ac-H4 complexes was determined by the measurement of the resonance energy transfer from the streptavidin-Eu cryptate to the anti-6His-XL665 antibody present in the reaction. For this purpose, the fluorescence emission was measured at 620 nm and 665 nm after excitation at 330-350 nm in a TR-FRET measuring instrument, for example a Rubystar or Pherastar (both from BMG Lab Technologies, Offenburg, Germany) or a Viewlux (Perkin-Elmer). The ratio of the emissions at 665 nm and at 622 nm was taken as an indicator of the amount of BRD4/Ac-H4 complexes formed.
The data (ratios) obtained were normalized, with 0% inhibition corresponding to the mean from the measurements for a set of controls (typically 32 data points) in which all the reagents were present. In these, in place of test substances, 50 nl of DMSO (100%) were used Inhibition of 100% corresponded to the mean from the measurements for a set of controls (typically 32 data points) in which all the reagents except BRD4 were present. The IC50 was determined by regression analysis based on a 4-parameter equation (minimum, maximum, IC50, Hill; Y=max+(min−max)/(1+(X/IC50)^Hill)).
A general note: In TR-FRET formats the signal depends on donor and acceptor labels being close together.

For `COC(=O)C[C@@H]1N=C(c2ccc(Cl)cc2)c2c(cn(C)c2C)-n2c(C)nnc21` [Example 1], the 50% inhibitory concentration (IC50) in experiment [1] came out at 80 nM; in experiment [2] it was 130 nM; in experiment [3] it was 50 nM; in experiment [4], 50 nM; in experiment [5], 90 nM; in experiment [6] it was 10 nM.

Regarding `COC(=O)C[C@@H]1N=C(c2ccccc2)c2c(cn(C)c2C)-n2c(C)nnc21` [Example 2, 2-(4S)-(1,7,8-Trimethyl-6-phenyl-4,8-dihydropyrrolo[3,4f][1,2,4]triazolo[4,3-a][1,4]diazepin-4-yl)acetic acid methyl ester], the IC50 in experiment [1] was 80 nM; in experiment [2] it was 330 nM; in experiment [4] it was 30 nM; in experiment [5], 90 nM; in experiment [6], 10 nM.

`Cc1c2c(cn1C)-n1c(C)nnc1[C@H](CC(=O)N1CC(F)C1)N=C2c1ccc(Cl)cc1` [Example 5, (−)-2-[(4S)-6-(4-Chlorophenyl)-1,7,8-trimethyl-4,8-dihydropyrrolo[3,4f][1,2,4]triazolo [4,3-a][1,4]diazepin-4-yl]-1-(3-fluoroazetidin-1-yl)ethan-1-one]: the half-maximal inhibitory concentration (IC50) stood at 580 nM in experiment [1]; 530 nM in experiment [2]; 370 nM in experiment [3]; 370 nM in experiment [4]; 70 nM in experiment [6] (BRD4 (BD1) / acetylated histone H4 peptide, TR-FRET, read-out: IC50 (BRD4)).

For orientation: IC50 means the concentration at which inhibition is half-maximal.
